Earlier results in patent US10335495B2, “Biomolecule conjugates” (CELGENE CORPORATION, priority 2014, dated 2019).

Conditions: versus methotrexate, daunorubicin, and vincristine

Q: With `COc1cc2cc(c1Cl)N(C)C(=O)C[C@H](OC(=O)[C@H](C)N(C)C(C)=O)[C@]1(C)O[C@H]1[C@H](C)[C@@H]1C[C@@](O)(NC(=O)O1)[C@H](OC)/C=C/C=C(\C)C2` [Maytansine] as the molecule, how does the “more cytotoxic than conventional cancer chemotherapeutic agents” value read?
A: Its value is 100- to 1000 fold.
